The results in this text go back to US12378250B2, “Tricyclic compound as IRAK4 inhibitor” (KOREA RESEARCH INSTITUTE OF CHEMICAL TECHNOLOGY, priority 2018, dated 2025).

The experiment has as its target T1, IRAK4 enzyme (Homo sapiens, UniProt Q9NWZ3).
T1 sequence (Q9NWZ3 1-460): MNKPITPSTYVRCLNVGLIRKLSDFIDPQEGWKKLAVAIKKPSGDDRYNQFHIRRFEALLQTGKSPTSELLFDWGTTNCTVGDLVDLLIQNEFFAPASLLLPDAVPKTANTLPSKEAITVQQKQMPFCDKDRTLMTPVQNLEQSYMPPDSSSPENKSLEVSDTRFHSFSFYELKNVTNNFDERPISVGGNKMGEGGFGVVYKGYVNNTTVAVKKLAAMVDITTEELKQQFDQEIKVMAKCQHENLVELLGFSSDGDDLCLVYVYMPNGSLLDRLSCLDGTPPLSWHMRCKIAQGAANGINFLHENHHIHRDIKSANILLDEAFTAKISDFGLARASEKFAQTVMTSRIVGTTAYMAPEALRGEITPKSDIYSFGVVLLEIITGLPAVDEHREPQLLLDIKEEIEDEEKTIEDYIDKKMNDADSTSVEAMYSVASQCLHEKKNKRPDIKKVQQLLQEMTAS
The experiment in a line: IRAK4 enzyme inhibition degree (bead-based kinase assay, peptide substrate BMKC-2, 100 μM ATP). The format is biochemical. Particulars: for inhibition at 1 µM: compound 1 μM. The protocol: 2.5 μl of a compound diluted to 4-fold of a final concentration was put into a 384-well white plate (low volume). 2.5 μl of 0.4 ng/μl IRAK4 enzyme was added thereto, and the resulting mixture was totally reacted for 10 minutes. 5 μl of a mixed liquid of a 6 μM peptide substrate (BMKC-2) and 100 μM ATP was added thereto, the resulting mixture was reacted at room temperature for 60 minutes, then 2.5 μl of 10 mM EDTA was added thereto, and the resulting mixture was reacted again for 10 minutes. 40 nM anti-phospho Thr antibody was aliquoted to 2.5 μl each, 5 μl of a mixed solution of a 160 μl/ml acceptor bead and a donor bead was added thereto, and then the resulting mixture was reacted at room temperature for 60 minutes. Fluorescence signals were measured using a bead experimental apparatus (Fusion alpha-FP Microplate Reader, Perkin Elmer Inc.).
From the detected signal, an activity inhibition rate [% inhibition degree=(the average value of a compound−the average value of a negative control)/(the average value of a positive control−the average value of a negative control)×100] was calculated, and is shown in [Table 1]. Further, a % inhibition degree of the compound at each concentration was obtained, and then a 50% inhibition concentration (IC50 value) was analyzed by a non-linear regression analysis.

Take `CCOC(=O)c1ccc2[nH]c3ncnc(Nc4ccc(OC)cc4)c3c2c1` [Compound 5bc, ethyl 4-((4-methoxyphenyl)amino)-9H-pyrimido[4,5-b]indole-6-carboxylate]: the inhibition at 1 µM was 9%.

As for `COC(=O)c1ccc2c(c1)[nH]c1ncnc(Nc3ccc(N4CCOCC4)cc3)c12` [Compound 5db, methyl 4-((4-morpholinophenyl)amino)-9H-pyrimido[4,5-b]indole-7-carboxylate], the inhibition at 1 µM is under 1%.

Turning to `N#Cc1cncc(-c2ccc3[nH]c4ncnc(N[C@H]5CC[C@H](N6CCOCC6)CC5)c4c3c2)c1` [Compound 6aao, 5-(4-((trans-4-morpholinocyclohexyl)amino)-9H-pyrimido[4,5-b]indol-6-yl) nicotinonitrile], the IC50 is 63 nM and 1 µM produced 74% inhibition.

Molecule `N#Cc1cc(F)cc(-c2ccc3[nH]c4ncnc(N[C@H]5CC[C@H](N6CCOCC6)CC5)c4c3c2)c1` [Compound 6aap, 3-fluoro-5-(4-((trans-4-morpholinocyclohexyl)amino)-9H-pyrimido[4,5-b]indol-6-yl) benzonitrile] registered a half-maximal inhibitory concentration (IC50) of 780 nM and an inhibition at 1 µM of 56%.

With `CC(C)(C)OC(=O)N1CCC(n2cc(-c3ccc4[nH]c5ncnc(N[C@H]6CC[C@H](N7CCOCC7)CC6)c5c4c3)cn2)CC1` [Compound 6aaq, tert-butyl 4-(4-(4-((trans-4-morpholinocyclohexyl)amino)-9H-pyrimido[4,5-b]indol-6-yl)-1H-pyrazol-1-yl)piperidine-1-carboxylate], the IC50 came to 565 nM and the inhibition at 1 µM stood at 59%.

Regarding `c1nc(N[C@H]2CC[C@H](N3CCOCC3)CC2)c2c(n1)[nH]c1ccc(-c3cnn(C4CCNCC4)c3)cc12` [Compound 6aar, N-(trans-4-morpholinocyclohexyl)-6-(1-(piperidin-4-yl)-1H-pyrazol-4-yl)-9H-pyrimido[4,5-b]indole-4-amine], half-maximal inhibition (IC50) was put at 137 nM and the inhibition at 1 µM was 78%.

Regarding `CS(=O)(=O)N1CCC(n2cc(-c3ccc4[nH]c5ncnc(N[C@H]6CC[C@H](N7CCOCC7)CC6)c5c4c3)cn2)CC1` [Compound 6aas, 6-(1-(1-(methylsulfonyl)piperidin-4-yl)-1H-pyrazol-4-yl)-N-(trans-4-morpholinocyclohexyl)-9H-pyrimido[4,5-b]indole-4-amine], the IC50 was determined as 50 nM and the inhibition at 1 µM was determined as 79%.

Turning to `Cn1cc(-c2ccc3[nH]c4ncnc(NCCN5CCOCC5)c4c3c2)cn1` [Compound 6ada, 6-(1-methyl-1H-pyrazol-4-yl)-N-(2-morpholinoethyl)-9H-pyrimido[4,5-b]indole-4-amine], the IC50 turned out to be 861 nM and the inhibition at 1 µM was 53%.

Take `Cn1cc(-c2ccc3[nH]c4ncnc(NCCCN5CCOCC5)c4c3c2)cn1` [Compound 6aea, 6-(1-methyl-1H-pyrazol-4-yl)-N-(3-morpholinopropyl)-9H-pyrimido[4,5-b]indole-4-amine]: the IC50 came out at 1530 nM and the inhibition at 1 µM was found to be 34%.

Regarding `Cn1cc(-c2ccc3[nH]c4ncnc(NCCN5CCN(C(=O)OC(C)(C)C)CC5)c4c3c2)cn1` [Compound 6afa, tert-butyl 4-(2-((6-(1-methyl-1H-pyrazol-4-yl)-9H-pyrimido[4,5-b]indol-4-yl)amino)ethyl)piperazine-1-carboxylate], inhibition was half-maximal at 1050 nM (IC50) and testing at 1 µM gave an inhibition of 36%.

As to `Cn1cc(-c2ccc3[nH]c4ncnc(OCCN5CCOCC5)c4c3c2)cn1` [Compound 6aha, 4-(2-((6-(1-methyl-1H-pyrazol-4-yl)-9H-pyrimido[4,5-b]indol-4-yl)oxy)ethyl)morpholine], the IC50 was found to be 1040 nM and the inhibition at 1 µM came out at 41%.

As to `c1nc(N[C@H]2CC[C@H](N3CCOCC3)CC2)c2c(n1)[nH]c1ccc(-c3nnc[nH]3)cc12` [Compound 6baa, N-(trans-4-morpholinocyclohexyl)-6-(4H-1,2,4-triazol-3-yl)-9H-pyrimido[4,5-b]indole-4-amine], half-maximal inhibition (IC50) was put at 308 nM and the inhibition at 1 µM was 70%.

`Cc1nnc(-c2ccc3[nH]c4ncnc(N[C@H]5CC[C@H](N6CCOCC6)CC5)c4c3c2)[nH]1` [Compound 6bab, 6-(5-methyl-4H-1,2,4-triazol-3-yl)-N-(trans-4-morpholinocyclohexyl)-9H-pyrimido[4,5-b]indole-4-amine] showed an IC50 of 210 nM and an inhibition at 1 µM of 86%.

With `Cn1cnnc1-c1ccc2[nH]c3ncnc(N[C@H]4CC[C@H](N5CCOCC5)CC4)c3c2c1` [Compound 6bac, 6-(4-methyl-4H-1,2,4-triazol-3-yl)-N-(trans-4-morpholinocyclohexyl)-9H-pyrimido[4,5-b]indole-4-amine], it took 842 nM to reach half-maximal inhibition (IC50) and the inhibition at 1 µM worked out at 60%.

`c1nc(N[C@H]2CC[C@H](N3CCOCC3)CC2)c2c(n1)[nH]c1ccc(-c3nnc4n3CCC4)cc12` [Compound 6bad, 6-(6,7-dihydro-5H-pyrrolo[2,1-c][1,2,4]triazol-3-yl)-N-(trans-4-morpholinocyclohexyl)-9H-pyrimido[4,5-b]indole-4-amine]: the IC50 turned out to be 928 nM and the inhibition at 1 µM was determined as 52%.

In turn, `Cc1nnc(-c2ccc3[nH]c4ncnc(N[C@H]5CC[C@H](N6CCOCC6)CC5)c4c3c2)o1` [Compound 6bae, 6-(5-methyl-1,3,4-oxadiazol-2-yl)-N-(trans-4-morpholinocyclohexyl)-9H-pyrimido[4,5-b]indole-4-amine] displayed an IC50 of 8 nM and an inhibition at 1 µM of 94%.

In turn, `O=c1[nH]nc(-c2ccc3[nH]c4ncnc(N[C@H]5CC[C@H](N6CCOCC6)CC5)c4c3c2)[nH]1` [Compound 6baf, 5-(4-((trans-4-morpholinocyclohexyl)amino)-9H-pyrimido[4,5-b]indol-6-yl)-2,4-dihydro-3H-1,2,4-triazole-3-one] displayed an IC50 of 509 nM and an inhibition at 1 µM of 70%.

`COC(=O)c1ccc2c(c1)[nH]c1nc(-c3cccc([N+](=O)[O-])c3)nc(N[C@H]3CC[C@H](N4CCOCC4)CC3)c12` [Compound 11b, methyl 4-((trans-4-morpholinocyclohexyl)amino)-2-(3-nitrophenyl)-9H-pyrimido[4,5-b]indole-7-carboxylate] returned an inhibition at 1 µM of 10%.

In the case of `Fc1cncc(-c2ccc3[nH]c4ncnc(N[C@H]5CC[C@H](N6CCOCC6)CC5)c4c3n2)c1` [Compound 23a, 6-(5-fluoropyridin-3-yl)-N-(trans-4-morpholinocyclohexyl)-9H-pyrido[2′,3′:4,5]pyrrolo[2,3-d]pyrimidin-4-amine], the IC50 came out at 79 nM and the inhibition at 1 µM stood at 91%.

Usually inhibition stands for the change of the read-out against control, counted positive when it falls. By IC50 is commonly meant the concentration at which inhibition is half-maximal. The low end stands for greater potency in that assay, the high end for weaker potency in that assay.
